Test results taken from US20240208992A1, “MACROCYCLES AS CFTR MODULATORS” (Idorsia Pharmaceuticals Ltd, priority 2021, published 2024).

Target: human F508del-CFTR (Homo sapiens, UniProt P13569, DEL508-508)
Assay: F508del-CFTR cell surface expression (corrector activity), DiscoveRx ß-galactosidase complementation chemiluminescence assay in recombinant U2OS cell line;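 further: U2OS cells co-expressing ProLink-tagged F508del-CFTR and a membrane-anchored enzyme acceptor, where more surface CFTR restores β-galactosidase activity measured by chemiluminescence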
Conditions: U2OS cell line, 16h compound incubation; for EC50: EC50, F508del-CFTR cell surface expression, geomean values; for Emax: U2OS, in relation to the Emax of the corrector lumacaftor (=100%), arithmetic mean values

Sequence of human F508del-CFTR (P13569 with tags, fused parts or gaps DEL508-508): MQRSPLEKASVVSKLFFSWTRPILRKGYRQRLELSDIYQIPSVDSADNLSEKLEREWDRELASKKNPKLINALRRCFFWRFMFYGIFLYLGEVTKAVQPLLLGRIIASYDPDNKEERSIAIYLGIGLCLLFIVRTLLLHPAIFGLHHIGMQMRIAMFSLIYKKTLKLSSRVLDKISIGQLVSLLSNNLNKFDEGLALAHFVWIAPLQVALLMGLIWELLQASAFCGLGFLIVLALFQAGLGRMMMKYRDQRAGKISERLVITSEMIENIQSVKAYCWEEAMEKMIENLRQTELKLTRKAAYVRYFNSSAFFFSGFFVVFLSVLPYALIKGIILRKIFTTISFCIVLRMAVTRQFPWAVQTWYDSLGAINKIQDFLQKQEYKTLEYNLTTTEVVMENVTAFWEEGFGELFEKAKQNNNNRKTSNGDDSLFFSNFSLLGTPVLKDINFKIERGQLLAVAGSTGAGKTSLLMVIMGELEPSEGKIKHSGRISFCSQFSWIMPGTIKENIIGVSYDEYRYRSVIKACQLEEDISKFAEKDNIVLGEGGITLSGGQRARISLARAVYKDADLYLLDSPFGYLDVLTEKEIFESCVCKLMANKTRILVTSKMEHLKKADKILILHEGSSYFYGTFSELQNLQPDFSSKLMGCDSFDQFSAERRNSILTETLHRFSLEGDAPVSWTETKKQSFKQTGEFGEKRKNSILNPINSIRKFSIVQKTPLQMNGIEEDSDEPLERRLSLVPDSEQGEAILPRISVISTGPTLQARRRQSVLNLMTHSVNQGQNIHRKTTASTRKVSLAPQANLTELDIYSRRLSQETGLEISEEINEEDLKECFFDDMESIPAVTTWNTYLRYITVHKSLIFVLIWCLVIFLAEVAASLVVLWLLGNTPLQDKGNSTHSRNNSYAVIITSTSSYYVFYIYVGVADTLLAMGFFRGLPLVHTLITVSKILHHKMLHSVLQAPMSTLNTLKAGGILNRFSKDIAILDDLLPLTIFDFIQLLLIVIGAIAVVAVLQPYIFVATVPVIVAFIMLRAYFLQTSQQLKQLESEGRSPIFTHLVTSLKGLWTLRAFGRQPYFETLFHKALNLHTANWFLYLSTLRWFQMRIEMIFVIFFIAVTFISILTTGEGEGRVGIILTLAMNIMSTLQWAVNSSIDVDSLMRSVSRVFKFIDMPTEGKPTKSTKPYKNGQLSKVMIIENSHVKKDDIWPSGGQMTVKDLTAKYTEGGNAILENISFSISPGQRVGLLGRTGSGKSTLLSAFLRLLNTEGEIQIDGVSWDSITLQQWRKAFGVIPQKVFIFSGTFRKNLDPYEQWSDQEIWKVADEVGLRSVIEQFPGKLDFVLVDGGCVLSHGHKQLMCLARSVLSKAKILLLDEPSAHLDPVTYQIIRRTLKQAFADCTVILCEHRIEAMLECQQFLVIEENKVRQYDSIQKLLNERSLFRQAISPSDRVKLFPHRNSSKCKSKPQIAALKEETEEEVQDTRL

| SMILES | EC50 [nM] | Emax [%] |
| --- | --- | --- |
| COc1cccc(CCNC(=O)[C@@H]2CC(=O)N(C)CC(=O)N(CCC3CCCCC3)CC(=O)N[C@H](Cc3ccccc3)COc3cccc(OC)c3C(=O)N2)c1 [Example 258, (3R,13S)-3-benzyl-7-(2-cyclohexylethyl)-16-methoxy-N-(3-methoxyphenethyl)-10-methyl-5,8,11,15-tetraoxo-2,3,4,5,6,7,8,9,10,11,12,13,14,15-tetradecahydrobenzo[p][1]oxa[4,7,10,14]tetraazacycloheptadecine-13-carboxamide] | 424 | 117 |
| COc1cccc2c1C(=O)N[C@H](C(=O)NCCc1ccc3c(c1)OCCCC3)CC(=O)N(C)[C@@H](CC(C)C)C(=O)N1CCOC[C@@H]1C(=O)N[C@H](Cc1ccccc1)CO2 [Example 260, (7S,11S,20R,22aR)-20-benzyl-7-isobutyl-14-methoxy-8-methyl-6,9,13,22-tetraoxo-N-(2-(2,3,4,5-tetrahydrobenzo[b]oxepin-8-yl)ethyl)-1,3,4,6,7,8,9,10,11,12,13,19,20,21,22,22a-hexadecahydrobenzo[p][1,4]oxazino[3,4-f][1]oxa[4,7,10,14]tetraazacycloheptadecine-11-carboxamide] | 783 | 243 |
| CC(C)C[C@H]1C(=O)N(CCC2CCCCC2)CC(=O)N[C@H](Cc2ccccc2)COc2ccncc2C(=O)N[C@H](C(=O)NCCc2ccc3c(c2)OCCC3)CC(=O)N1C [Example 261, (3R,9S,13S)-3-benzyl-N-(2-(chroman-7-yl)ethyl)-7-(2-cyclohexylethyl)-9-isobutyl-10-methyl-5,8,11,15-tetraoxo-2,3,4,5,6,7,8,9,10,11,12,13,14,15-tetradecahydropyrido[3,4-p][1]oxa[4,7,10,14]tetraazacycloheptadecine-13-carboxamide] | 327 | 215 |
| CC(C)C[C@H]1C(=O)N(CCC2CCCCC2)CC(=O)N[C@H](Cc2ccccc2)COc2ccncc2C(=O)N[C@H](C(=O)NCCc2ccc3c(c2)OCC3)CC(=O)N1C [Example 262, (3R,9S,13S)-3-benzyl-7-(2-cyclohexylethyl)-N-(2-(2,3-dihydrobenzofuran-6-yl)ethyl)-9-isobutyl-10-methyl-5,8,11,15-tetraoxo-2,3,4,5,6,7,8,9,10,11,12,13,14,15-tetradecahydropyrido[3,4-p][1]oxa[4,7,10,14]tetraazacycloheptadecine-13-carboxamide] | 339 | 231 |
| COc1cccc2c1C(=O)N[C@H](C(=O)NCCc1ccc3c(c1)OCO3)CC(=O)N(C)[C@@H](C)C(=O)N(CCC1CCCCC1)CC(=O)N[C@H](Cc1ccccc1)CO2 [Example 263, (3R,9S,13S)-N-(2-(benzo[d][1,3]dioxol-5-yl)ethyl)-3-benzyl-7-(2-cyclohexylethyl)-16-methoxy-9,10-dimethyl-5,8,11,15-tetraoxo-2,3,4,5,6,7,8,9,10,11,12,13,14,15-tetradecahydrobenzo[p][1]oxa[4,7,10,14]tetraazacycloheptadecine-13-carboxamide] | 448 | 140 |
| COc1cccc(CCNC(=O)[C@@H]2CC(=O)N(C)[C@@H](C)C(=O)N(CCC3CCCCC3)CC(=O)N[C@H](Cc3ccccc3)COc3cccc(OC)c3C(=O)N2)c1 [Example 264, (3R,9S,13S)-3-benzyl-7-(2-cyclohexylethyl)-16-methoxy-N-(3-methoxyphenethyl)-9,10-dimethyl-5,8,11,15-tetraoxo-2,3,4,5,6,7,8,9,10,11,12,13,14,15-tetradecahydrobenzo[p][1]oxa[4,7,10,14]tetraazacycloheptadecine-13-carboxamide] | 442 | 117 |
| CC(C)C[C@H]1C(=O)N(CCC2CCCCC2)CC(=O)N[C@H](Cc2ccccc2)COc2cnccc2C(=O)N[C@H](C(=O)NCCc2ccc3c(c2)OCO3)CC(=O)N1C [Example 265, (3R,9S,13S)-N-(2-(benzo[d][1,3]dioxol-5-yl)ethyl)-3-benzyl-7-(2-cyclohexylethyl)-9-isobutyl-10-methyl-5,8,11,15-tetraoxo-2,3,4,5,6,7,8,9,10,11,12,13,14,15-tetradecahydropyrido[4,3-p][1]oxa[4,7,10,14]tetraazacycloheptadecine-13-carboxamide] | 266 | 106 |
| COc1cccc(CCNC(=O)[C@@H]2CC(=O)N(C)[C@@H](CC(C)C)C(=O)N(CCC3CCCCC3)CC(=O)N[C@H](Cc3ccccc3)COc3cnccc3C(=O)N2)c1 [Example 266, (3R,9S,13S)-3-benzyl-7-(2-cyclohexylethyl)-9-isobutyl-N-(3-methoxyphenethyl)-10-methyl-5,8,11,15-tetraoxo-2,3,4,5,6,7,8,9,10,11,12,13,14,15-tetradecahydropyrido[4,3-p][1]oxa[4,7,10,14]tetraazacycloheptadecine-13-carboxamide] | 357 | 136 |
| CC(C)C[C@H]1C(=O)N(CCC2CCCCC2)CC(=O)N[C@H](Cc2ccccc2)COc2ccc3ccccc3c2C(=O)N[C@H](C(=O)NCCc2ccc3c(c2)OCO3)CC(=O)N1C [Example 267, (3S,7S,13R)-N-(2-(benzo[d][1,3]dioxol-5-yl)ethyl)-13-benzyl-9-(2-cyclohexylethyl)-7-isobutyl-6-methyl-1,5,8,11-tetraoxo-1,2,3,4,5,6,7,8,9,10,11,12,13,14-tetradecahydronaphtho[1,2-p][1]oxa[4,7,10,14]tetraazacycloheptadecine-3-carboxamide] | 107 | 275 |
| COc1cccc(CCNC(=O)[C@@H]2CC(=O)N(C)[C@@H](CC(C)C)C(=O)N(CCC3CCCCC3)CC(=O)N[C@H](Cc3ccccc3)COc3ccc4ccccc4c3C(=O)N2)c1 [Example 268, (3S,7S,13R)-13-benzyl-9-(2-cyclohexylethyl)-7-isobutyl-N-(3-methoxyphenethyl)-6-methyl-1,5,8,11-tetraoxo-1,2,3,4,5,6,7,8,9,10,11,12,13,14-tetradecahydronaphtho[1,2-p][1]oxa[4,7,10,14]tetraazacycloheptadecine-3-carboxamide] | 100 | 273 |
| CC(C)C[C@H]1C(=O)N(C)CC(=O)N[C@H](Cc2ccccc2)COc2ccc3ccccc3c2C(=O)N[C@H](C(=O)NCCc2ccc3c(c2)OCO3)CC(=O)N1C [Example 269, (3S,7S,13R)-N-(2-(benzo[d][1,3]dioxol-5-yl)ethyl)-13-benzyl-7-isobutyl-6,9-dimethyl-1,5,8,11-tetraoxo-1,2,3,4,5,6,7,8,9,10,11,12,13,14-tetradecahydronaphtho[1,2-p][1]oxa[4,7,10,14]tetraazacycloheptadecine-3-carboxamide] | 350 | 251 |
| Cc1cc2c(cn1)C(=O)N[C@H](C(=O)NCCc1ccc3c(c1)OCO3)CC(=O)N(C)[C@@H](CC(C)C)C(=O)N(CCC1CCCCC1)CC(=O)N[C@H](Cc1ccccc1)CO2 [Example 270, (3R,9S,13S)-N-(2-(benzo[d][1,3]dioxol-5-yl)ethyl)-3-benzyl-7-(2-cyclohexylethyl)-9-isobutyl-10,18-dimethyl-5,8,11,15-tetraoxo-2,3,4,5,6,7,8,9,10,11,12,13,14,15-tetradecahydropyrido[3,4-p][1]oxa[4,7,10,14]tetraazacycloheptadecine-13-carboxamide] | 423 | 172 |
| COc1cccc(CCNC(=O)[C@@H]2CC(=O)N(C)[C@@H](CC(C)C)C(=O)N(CCC3CCCCC3)CC(=O)N[C@H](Cc3ccccc3)COc3cc(C)ncc3C(=O)N2)c1 [Example 271, (3R,9S,13S)-3-benzyl-7-(2-cyclohexylethyl)-9-isobutyl-N-(3-methoxyphenethyl)-10,18-dimethyl-5,8,11,15-tetraoxo-2,3,4,5,6,7,8,9,10,11,12,13,14,15-tetradecahydropyrido[3,4-p][1]oxa[4,7,10,14]tetraazacycloheptadecine-13-carboxamide] | 266 | 185 |
| COc1cc(OC)c2c(c1)OC[C@@H](Cc1ccccc1)NC(=O)CN(CCC1CCCCC1)C(=O)[C@H](C)N(C)C(=O)C[C@@H](C(=O)NCCc1ccc3c(c1)OCO3)NC2=O [Example 272, (3R,9S,13S)-N-(2-(benzo[d][1,3]dioxol-5-yl)ethyl)-3-benzyl-7-(2-cyclohexylethyl)-16,18-dimethoxy-9,10-dimethyl-5,8,11,15-tetraoxo-2,3,4,5,6,7,8,9,10,11,12,13,14,15-tetradecahydrobenzo[p][1]oxa[4,7,10,14]tetraazacycloheptadecine-13-carboxamide] | 374 | 176 |
| COc1cccc(CCNC(=O)[C@@H]2CC(=O)N(C)[C@@H](C)C(=O)N(CCC3CCCCC3)CC(=O)N[C@H](Cc3ccccc3)COc3cc(OC)cc(OC)c3C(=O)N2)c1 [Example 273, (3R,9S,13S)-3-benzyl-7-(2-cyclohexylethyl)-16,18-dimethoxy-N-(3-methoxyphenethyl)-9,10-dimethyl-5,8,11,15-tetraoxo-2,3,4,5,6,7,8,9,10,11,12,13,14,15-tetradecahydrobenzo[p][1]oxa[4,7,10,14]tetraazacycloheptadecine-13-carboxamide] | 365 | 169 |
| COc1cc(OC)c2c(c1)OC[C@@H](Cc1ccccc1)NC(=O)CN(CCC1CCCCC1)C(=O)[C@H](CC(C)C)N(C)C(=O)C[C@@H](C(=O)NCCc1ccc3c(c1)OCCC3)NC2=O [Example 275, (3R,9S,13S)-3-benzyl-N-(2-(chroman-7-yl)ethyl)-7-(2-cyclohexylethyl)-9-isobutyl-16,18-dimethoxy-10-methyl-5,8,11,15-tetraoxo-2,3,4,5,6,7,8,9,10,11,12,13,14,15-tetradecahydrobenzo[p][1]oxa[4,7,10,14]tetraazacycloheptadecine-13-carboxamide] | 148 | 333 |
